Measurements as given in US20240376085A1 (Janssen Pharmaceutica NV, priority 2021, published 2024).
pIC50: −log10 of the molar value.

What was measured:
IL-17A : IL-17RA binding = target: T1, IL-17A : IL-17RA binding (Homo sapiens, UniProt Q16552, K93Q); assay: IL-17A(FLAG-tagged):IL-17RA(His-tagged) binding disruption Eu-HTRF assay, Protocol 1; conditions: FLAG-IL-17A 2.5 nM at 2x final concentration; average if tested more than once
T1 construct: Name: IL-17A-Flag
Outline: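 IC50 came from a one-site competition fit of the acceptor/donor (665/620 nm) HTRF ratio. His-tagged IL-17RA, Eu-anti-FLAG and D2-anti-His were added after a 1 h rt compound preincubation with FLAG-tagged IL-17A dimer in PBS/0.01% Triton X-100, followed by 2 h at rt before reading.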

[1] = tested on: IL-17A-induced G-CSF production in human normal keratinocyte (NHK); assay: NHK assay: IL-17A-induced G-CSF production in normal human keratinocytes; assay type: cell-based; conditions: IL-17A 5 ng/mL, 24 h, average if tested more than once
Outline: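 Stimulus rhIL-17A 5 ng/mL final, premixed 1 h rt with compound; adult NHK, 5% FBS, 0.2% DMSO. Viability by CellTiter-Glo vs DMSO.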

T1 sequence (Q16552 with tags, fused parts or gaps K93Q): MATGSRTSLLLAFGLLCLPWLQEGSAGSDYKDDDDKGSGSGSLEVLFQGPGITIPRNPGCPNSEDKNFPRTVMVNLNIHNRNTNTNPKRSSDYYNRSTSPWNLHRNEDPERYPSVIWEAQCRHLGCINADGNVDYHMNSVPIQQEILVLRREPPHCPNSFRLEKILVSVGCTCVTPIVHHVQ

pIC50 (IL-17A : IL-17RA binding) | SMILES | pIC50 [1] | pIC50 ([1]; Homo sapiens, Keratinocyte)
< 7.00 | Cn1nccc1C(=O)N[C@H](c1nc2cc(C(NC(=O)CCC(F)(F)F)C3CCC3)ccc2[nH]1)C1CCC(F)(F)CC1 (single isomer, unassigned) [Example 43, N—((S)-(5-((R*)-Cyclobutyl(4,4,4-trifluorobutanamido)methyl)-1H-benzo[d]imidazol-2-yl)(4,4-difluorocyclohexyl)methyl)-1-methyl-1H-pyrazole-5-carboxamide] | < 7.00 | –
> 7.30 | O=C(CC1CC(F)(F)C1)N[C@@H](c1ccc2nc([C@@H](NC(=O)c3nonc3C3CC3)[C@@H]3C[C@@H]4[C@H](C3)C4(F)F)[nH]c2c1)C1CC1 [Example 239, 4-Cyclopropyl-N—((S)-(6-((R)-cyclopropyl(2-(3,3-difluorocyclobutyl)acetamido)methyl)-1H-benzo[d]imidazol-2-yl)((1R,3s,5S)-6,6-difluorobicyclo[3.1.0]hexan-3-yl)methyl)-1,2,5-oxadiazole-3-carboxamide] | – | > 7.30
< 7.00 | C[C@@H](NC(=O)CCC(F)(F)F)c1ccc2[nH]c([C@@H](NC(=O)c3ccn4c3CCC4)C3CCC(F)(F)CC3)nc2c1 [Example 210, N—((S)-(4,4-Difluorocyclohexyl)(5-((R)-1-(4,4,4-trifluorobutanamido)ethyl)-1H-benzo[d]imidazol-2-yl)methyl)-2,3-dihydro-1H-pyrrolizine-7-carboxamide] | – | < 7.00
< 7.00 | C[C@@H](NC(=O)CCC(F)(F)F)c1ccc2[nH]c([C@@H](NC(=O)c3cnc4n3CCC4)C3CCC(F)(F)CC3)nc2c1 [Example 211, N—((S)-(4,4-Difluorocyclohexyl)(5-((R)-1-(4,4,4-trifluorobutanamido)ethyl)-1H-benzo[d]imidazol-2-yl)methyl)-6,7-dihydro-5H-pyrrolo[1,2-a]imidazole-3-carboxamide] | – | < 7.00
> 7.30 | Cc1nonc1C(=O)N[C@H](c1nc2ccc([C@H](NC(=O)CC3CC(F)(F)C3)C3CC3)cc2[nH]1)[C@H]1C[C@@H]2[C@H](C1)C2(F)F [Example 240, N—((S)-(6-((R)-Cyclopropyl(2-(3,3-difluorocyclobutyl)acetamido)methyl)-1H-benzo[d]imidazol-2-yl)((1R,3r,5S)-6,6-difluorobicyclo[3.1.0]hexan-3-yl)methyl)-4-methyl-1,2,5-oxadiazole-3-carboxamide] | – | < 7.00
7.00 to 7.30 | CC(C)c1ocnc1C(=O)N[C@H](c1nc2cc([C@@H](C)NC(=O)CCC(F)(F)F)ccc2[nH]1)C1CCC(F)(F)CC1 [Example 207, N—((S)-(4,4-Difluorocyclohexyl)(5-((R)-1-(4,4,4-trifluorobutanamido)ethyl)-1H-benzo[d]imidazol-2-yl)methyl)-5-isopropyloxazole-4-carboxamide] | – | < 7.00
< 7.00 | C[C@@H](NC(=O)CCC(F)(F)F)c1ccc2[nH]c([C@@H](NC(=O)c3cnn(CC4CC4)n3)C3CCC(F)(F)CC3)nc2c1 [Example 8, 2-(Cyclopropylmethyl)-N—[(S)-(4,4-difluorocyclohexyl)-[6-[(1R)-1-(4,4,4-trifluorobutanoylamino)ethyl]-1H-benzimidazol-2-yl]methyl]triazole-4-carboxamide] | – | < 7.00
< 7.00 | C[C@@H](NC(=O)CCC(F)(F)F)c1ccc2nc([C@@H](NC(=O)c3cnnn3C3CC3)C3CCC(F)(F)CC3)[nH]c2c1 [Example 60, 1-Cyclopropyl-N—((S)-(4,4-difluorocyclohexyl)(6-((R)-1-(4,4,4-trifluorobutanamido)ethyl)-1H-benzo[d]imidazol-2-yl)methyl)-1H-1,2,3-triazole-5-carboxamide] | – | < 7.00
< 7.00 | Cc1nonc1C(=O)N[C@@H](c1nc2ccc([C@H](NC(=O)CC3CC(F)(F)C3)C3CC3)cc2[nH]1)[C@@H]1CCCCO1 (relative stereo) [Example 249, N—((S*)-(6-((R)-Cyclopropyl(2-(3,3-difluorocyclobutyl)acetamido)methyl)-1H-benzo[d]imidazol-2-yl)((S*)-tetrahydro-2H-pyran-2-yl)methyl)-4-methyl-1,2,5-oxadiazole-3-carboxamide] | – | < 7.00
> 7.30 | Cc1nonc1C(=O)N[C@H](c1nc2ccc([C@H](NC(=O)CC3CC(F)(F)C3)C3CC3)cc2[nH]1)[C@@H]1CCCC(F)(F)C1 [Example 246, N—((S)-(6-((R)-Cyclopropyl(2-(3,3-difluorocyclobutyl)acetamido)methyl)-1H-benzo[d]imidazol-2-yl)((R)-3,3-difluorocyclohexyl)methyl)-4-methyl-1,2,5-oxadiazole-3-carboxamide] | – | > 7.30
< 7.00 | CC(Cn1ncc(C(=O)N[C@H](c2nc3ccc([C@@H](C)NC(=O)CCC(F)(F)F)cc3[nH]2)C2CCC(F)(F)CC2)n1)C(F)(F)F (single isomer, unassigned) [Example 69, N—((S)-(4,4-Difluorocyclohexyl)(6-((R)-1-(4,4,4-trifluorobutanamido)ethyl)-1H-benzo[d]imidazol-2-yl)methyl)-2-((R*)-3,3,3-trifluoro-2-methylpropyl)-2H-1,2,3-triazole-4-carboxamide] | – | < 7.00
< 7.00 | CC(C)c1nnsc1C(=O)N[C@H](c1nc2cc([C@@H](C)NC(=O)CCC(F)(F)F)ccc2[nH]1)C1CCC(F)(F)CC1 [Example 188, N—((S)-(4,4-Difluorocyclohexyl)(5-((R)-1-(4,4,4-trifluorobutanamido)ethyl)-1H-benzo[d]imidazol-2-yl)methyl)-4-isopropyl-1,2,3-thiadiazole-5-carboxamide] | – | < 7.00
> 7.30 | Cc1nonc1C(=O)N[C@@H](CC(C)(C)C(F)(F)F)c1nc2cc([C@H](NC(=O)CCC(F)(F)F)C3CC3)ccc2[nH]1 (relative stereo) [Example 193, N—((S*)-1-(5-((R*)-Cyclopropyl(4,4,4-trifluorobutanamido)methyl)-1H-benzo[d]imidazol-2-yl)-4,4,4-trifluoro-3,3-dimethylbutyl)-4-methyl-1,2,5-oxadiazole-3-carboxamide] | – | 7.00 to 7.30
7.00 to 7.30 | CC(C)c1scnc1C(=O)N[C@H](c1nc2cc([C@@H](C)NC(=O)CCC(F)(F)F)ccc2[nH]1)C1CCC(F)(F)CC1 [Example 200, N—((S)-(4,4-Difluorocyclohexyl)(5-((R)-1-(4,4,4-trifluorobutanamido)ethyl)-1H-benzo[d]imidazol-2-yl)methyl)-5-isopropylthiazole-4-carboxamide] | – | 7.00 to 7.30
> 7.30 | CC(CC(=O)N[C@@H](c1ccc2[nH]c([C@H](COC(C)(C)C(F)(F)F)NC(=O)c3nonc3C3CC3)nc2c1)C1CC1)C(F)F (single isomer, unassigned) [Example 175, 4-Cyclopropyl-N—((R)-1-(5-((R)-cyclopropyl((R*)-4,4-difluoro-3-methylbutanamido)methyl)-1H-benzo[d]imidazol-2-yl)-2-((1,1,1-trifluoro-2-methylpropan-2-yl)oxy)ethyl)-1,2,5-oxadiazole-3-carboxamide] | – | < 7.00
< 7.00 | COCCn1cc(C(=O)N[C@H](c2nc3cc([C@@H](C)NC(=O)CCC(F)(F)F)ccc3[nH]2)C2CCC(F)(F)CC2)nn1 [Example 16, N—[(S)-(4,4-Difluorocyclohexyl)-[6-[(1R)-1-(4,4,4-trifluorobutanoylamino)ethyl]-1H-benzimidazol-2-yl]methyl]-1-(2-methoxyethyl)triazole-4-carboxamide] | – | < 7.00
7.00 to 7.30 | CC(C)n1nccc1C(=O)N[C@H](c1nc2ccc([C@H](NC(=O)CC3CC(F)(F)C3)C3CC3)cc2[nH]1)[C@H]1C[C@@H]2[C@H](C1)C2(F)F [Example 241, N—((S)-(6-((R)-Cyclopropyl(2-(3,3-difluorocyclobutyl)acetamido)methyl)-1H-benzo[d]imidazol-2-yl)((1R,3r,5S)-6,6-difluorobicyclo[3.1.0]hexan-3-yl)methyl)-1-isopropyl-1H-pyrazole-5-carboxamide] | – | > 7.30
> 7.30 | CC(C)c1nonc1C(=O)NC(CC(C)(C)C(F)(F)F)c1nc2cc([C@@H](C)NC(=O)CCC(F)(F)F)ccc2[nH]1 (single isomer, unassigned) [Example 57, 4-Isopropyl-N—((S*)-4,4,4-trifluoro-3,3-dimethyl-1-(5-((R)-1-(4,4,4-trifluorobutanamido)ethyl)-1H-benzo[d]imidazol-2-yl)butyl)-1,2,5-oxadiazole-3-carboxamide] | – | > 7.30
< 7.00 | CC(CC(=O)N[C@H](C)c1ccc2nc([C@@H](NC(=O)c3ccnn3CC(F)(F)F)C3CCC(F)(F)CC3)[nH]c2c1)C(F)(F)F (single isomer, unassigned) [Example 137, N—((S)-(4,4-Difluorocyclohexyl)(6-((R)-1-((S*)-4,4,4-trifluoro-3-methylbutanamido)ethyl)-1H-benzo[d]imidazol-2-yl)methyl)-1-(2,2,2-trifluoroethyl)-1H-pyrazole-5-carboxamide] | 7.00 to 7.30 | –
< 7.00 | Cn1nccc1C(=O)N[C@H](c1nc2cc(C(NC(=O)CCC(F)(F)F)C3CCC3)ccc2[nH]1)C1CCC(F)(F)CC1 (single isomer, unassigned) [Example 42, N—((S)-(5-((S*)-Cyclobutyl(4,4,4-trifluorobutanamido)methyl)-1H-benzo[d]imidazol-2-yl)(4,4-difluorocyclohexyl)methyl)-1-methyl-1H-pyrazole-5-carboxamide] | – | > 7.30
